# Data taken from PMC5281649 (European Journal of Nuclear Medicine and Molecular Imaging, 2016).
# Where two headings read alike, the source gives them in different places.
# Tests used:
# [1] = 1 and 5 mg daily; moderate AD; compared with placebo; cited from earlier work
# brain MAO-B enzyme = molecular target: T1, brain MAO-B enzyme (Homo sapiens, UniProt P27338); assay: PET with [11C]-L-deprenyl-D2: brain MAO-B inhibition after repeated oral sembragiline; type: in vivo; conditions: for receptor occupancy at 0.2 mg: 168 h; for receptor occupancy at 0.2 mg / receptor occupancy at 1 mg: EC subjects, read-out: Occ (MAO-B occupancy); for receptor occupancy at 0.2 mg / receptor occupancy at 1 mg / [11C]-L-deprenyl-D2 λk3 post-dose: mean (range); for receptor occupancy at 1 mg: 336 h; for [11C]-L-deprenyl-D2 λk3 post-dose: AD patients
# T1 sequence (P27338 1-520): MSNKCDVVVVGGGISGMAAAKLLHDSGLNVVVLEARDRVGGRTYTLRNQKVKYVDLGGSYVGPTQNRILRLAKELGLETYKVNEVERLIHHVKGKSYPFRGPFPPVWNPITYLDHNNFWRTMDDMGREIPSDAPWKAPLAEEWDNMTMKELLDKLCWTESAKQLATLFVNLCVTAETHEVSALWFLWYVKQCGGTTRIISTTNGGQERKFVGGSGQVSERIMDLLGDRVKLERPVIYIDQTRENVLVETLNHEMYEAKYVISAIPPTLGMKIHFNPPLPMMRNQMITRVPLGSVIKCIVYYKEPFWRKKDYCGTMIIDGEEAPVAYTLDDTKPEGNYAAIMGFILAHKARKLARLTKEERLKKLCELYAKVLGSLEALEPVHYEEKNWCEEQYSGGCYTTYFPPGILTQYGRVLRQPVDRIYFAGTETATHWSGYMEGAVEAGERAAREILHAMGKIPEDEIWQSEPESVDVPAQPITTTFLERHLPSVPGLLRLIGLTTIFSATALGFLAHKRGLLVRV
# Experimental: The first dose was administered at the study centre under the supervision of study personnel. On subsequent study days, treatment compliance was assured by intake logs and tablet counting.
# At baseline, each subject underwent a PET scan using [^11C]-L-deprenyl-D2 to measure MAO-B enzyme activity in the brain prior to their first dose of allocated medication. The second scan was performed at trough concentrations at steady state prior to the last drug administration. Before each scan, a cannula was inserted into a radial artery and another into an antecubital vein. A sterile phosphate buffer (pH = 7.4) containing radioligand was injected as a bolus over several seconds into the cubital vein.
# A transmission scan was performed using three rotating ^68Ge rod sources. [^11C]-L-Deprenyl-D2 was injected intravenously as a bolus, and emission data were acquired over 63 min using the ECAT EXACT high-resolution system (Siemens Medical Solutions, Malvern, PA, USA). The injected radioactivity was targeted to approximately 300 MBq. The injected mass of deprenyl was to be ≤100 μg, and ≥50–100-fold lower than the typical administered dose of 5–10 mg deprenyl to patients with Parkinson’s disease. The framing was as follows: 9 frames x 10 s, 2 frames x 15 s, 3 frames x 20 s, 4 frames x 30 s, 4 frames x 60 s, 4 frames x 180 s, 7 frames x 360 s. Images were reconstructed using the standard filtered back-projection, with a 2-mm Hanning filter, a zoom factor of 2.17, and a 128 × 128 matrix, and were corrected for attenuation and scatter. A summation PET image was created for each subject and PET session by averaging across all frames. Time–activity curves were then extracted from selected ROIs.
# Arterial blood samples were used for measurement of radioactivity in whole blood and plasma, as well as to determine the parent fraction of the radioligand, using a reversed-phase high-performance liquid chromatography method (Karolinska University Hospital, Solna, Stockholm, Sweden). A catheter was inserted in the radial artery, and arterial blood was collected continuously for 10 min using an automated blood sampling system at a speed of 5 mL/min. Discrete blood samples were drawn approximately 10, 15, 20, 30, 45 and 60 min after each injection of [^11C]-L-deprenyl-D2.
# Time–activity data were analysed as previously described. Briefly, [^11C]-L-deprenyl-D2 was quantified by the two-tissue compartment model with three rate constants (K 1, k 2, k 3) using the PMOD 3.3 software package (PMOD Group, Zurich, Switzerland), where the tissue compartments represent the free plus non-specifically bound and specifically bound radiotracer. The outcome measure λk 3 was calculated as (K 1/k 2)*k 3, using a non-linear approach, and was used as an estimate for specific binding to MAO-B that was independent of perfusion. […] This is because λk3 is independent of perfusion and has better reproducibility than k3 alone.
# [2] = 5 mg loading day 1 then 0.2 mg q.d. days 2–7, frontal cortex, N = 3
# [3] = 5 mg loading day 1 then 0.2 mg q.d. days 2–7, hippocampus, N = 3
# [4] = 5 mg loading day 1 then 0.2 mg q.d. days 2–7, parietal cortex, N = 3
# [5] = 5 mg loading day 1 then 0.2 mg q.d. days 2–7, striatum, N = 3
# [6] = 5 mg loading day 1 then 0.2 mg q.d. days 2–7, thalamus, N = 3
# [7] = 5 mg loading day 1 then 0.2 mg q.d. days 2–7, whole brain, N = 3
compound,measurement,setting,value
CC(=O)N[C@H]1CC(=O)N(c2ccc(OCc3cccc(F)c3)cc2)C1 [sembragiline],Primary efficacy outcome on cognition (ADAS-Cog11),[1],failed on the primary efficacy outcome on cognition
same,MAO-B inhibition at trough (mean values),"brain MAO-B enzyme; 1 mg, across all brain ROIs and study populations",75–86%
same,MAO-B inhibition (overall range),"brain MAO-B enzyme; 1 mg, six brain ROIs and study populations, overall",71–88%
same,MAO-B inhibition (mean values),"brain MAO-B enzyme; 5-mg dose, across brain ROIs",76–86%
same,receptor occupancy at 0.2 mg,brain MAO-B enzyme; [2],51.7%
same,receptor occupancy at 0.2 mg,brain MAO-B enzyme; [3],51.6%
same,receptor occupancy at 0.2 mg,brain MAO-B enzyme; [4],50.7%
same,receptor occupancy at 0.2 mg,brain MAO-B enzyme; [5],56.1%
same,receptor occupancy at 0.2 mg,brain MAO-B enzyme; [6],53.7%
same,receptor occupancy at 0.2 mg,brain MAO-B enzyme; [7],49.1%
same,receptor occupancy at 1 mg,"brain MAO-B enzyme; 1 mg q.d. for 14 days, frontal cortex, N = 3",76.2%
same,receptor occupancy at 1 mg,"brain MAO-B enzyme; 1 mg q.d. for 14 days, hippocampus, N = 3",83.9%
same,receptor occupancy at 1 mg,"brain MAO-B enzyme; 1 mg q.d. for 14 days, parietal cortex, N = 3",76.1%
same,receptor occupancy at 1 mg,"brain MAO-B enzyme; 1 mg q.d. for 14 days, striatum, N = 3",84.7%
same,receptor occupancy at 1 mg,"brain MAO-B enzyme; 1 mg q.d. for 14 days, thalamus, N = 3",85.7%
same,receptor occupancy at 1 mg,"brain MAO-B enzyme; 1 mg q.d. for 14 days, whole brain, N = 3",75.4%
same,[11C]-L-deprenyl-D2 λk3 post-dose,"brain MAO-B enzyme; 1 mg q.d. for 14 days, frontal cortex, N = 2",0.04 (0.03–0.04)
same,[11C]-L-deprenyl-D2 λk3 post-dose,"brain MAO-B enzyme; 1 mg q.d. for 14 days, hippocampus, N = 2",0.05 (0.05–0.05)
same,[11C]-L-deprenyl-D2 λk3 post-dose,"brain MAO-B enzyme; 1 mg q.d. for 14 days, parietal cortex, N = 2",0.04 (0.03–0.05)
same,[11C]-L-deprenyl-D2 λk3 post-dose,"brain MAO-B enzyme; 1 mg q.d. for 14 days, striatum, N = 2",0.04 (0.04–0.05)
same,[11C]-L-deprenyl-D2 λk3 post-dose,"brain MAO-B enzyme; 1 mg q.d. for 14 days, thalamus, N = 2",0.04 (0.04–0.04)
same,[11C]-L-deprenyl-D2 λk3 post-dose,"brain MAO-B enzyme; 1 mg q.d. for 14 days, whole brain, N = 2",0.04 (0.04–0.05)
same,[11C]-L-deprenyl-D2 λk3 post-dose,"brain MAO-B enzyme; 5 mg loading day 1 then 0.1 mg q.d. days 2–15, frontal cortex, N = 2",0.07 (0.06–0.08)
same,[11C]-L-deprenyl-D2 λk3 post-dose,"brain MAO-B enzyme; 5 mg loading day 1 then 0.1 mg q.d. days 2–15, hippocampus, N = 2",0.11 (0.10–0.11)
same,[11C]-L-deprenyl-D2 λk3 post-dose,"brain MAO-B enzyme; 5 mg loading day 1 then 0.1 mg q.d. days 2–15, parietal cortex, N = 2",0.07 (0.07–0.08)
same,[11C]-L-deprenyl-D2 λk3 post-dose,"brain MAO-B enzyme; 5 mg loading day 1 then 0.1 mg q.d. days 2–15, striatum, N = 2",0.12 (0.11–0.13)
same,[11C]-L-deprenyl-D2 λk3 post-dose,"brain MAO-B enzyme; 5 mg loading day 1 then 0.1 mg q.d. days 2–15, whole brain, N = 2",0.08 (0.08–0.09)
same,[11C]-L-deprenyl-D2 λk3 post-dose,brain MAO-B enzyme; [2],0.06 (0.05–0.07)
same,[11C]-L-deprenyl-D2 λk3 post-dose,brain MAO-B enzyme; [3],0.07 (0.07–0.08)
same,[11C]-L-deprenyl-D2 λk3 post-dose,brain MAO-B enzyme; [4],0.06 (0.05–0.07)
same,[11C]-L-deprenyl-D2 λk3 post-dose,brain MAO-B enzyme; [5],0.08 (0.08–0.08)
same,[11C]-L-deprenyl-D2 λk3 post-dose,brain MAO-B enzyme; [6],0.07 (0.07–0.07)
same,[11C]-L-deprenyl-D2 λk3 post-dose,brain MAO-B enzyme; [7],0.06 (0.06–0.07)
same,[11C]-L-deprenyl-D2 λk3 post-dose,"brain MAO-B enzyme; 5 mg q.d. for 6–9 days, frontal cortex, N = 2",0.04 (0.04–0.04)
same,[11C]-L-deprenyl-D2 λk3 post-dose,"brain MAO-B enzyme; 5 mg q.d. for 6–9 days, hippocampus, N = 2",0.04 (0.03–0.05)
same,[11C]-L-deprenyl-D2 λk3 post-dose,"brain MAO-B enzyme; 5 mg q.d. for 6–9 days, parietal cortex, N = 2",0.04 (0.03–0.04)
same,[11C]-L-deprenyl-D2 λk3 post-dose,"brain MAO-B enzyme; 5 mg q.d. for 6–9 days, striatum, N = 2",0.05 (0.04–0.05)
same,[11C]-L-deprenyl-D2 λk3 post-dose,"brain MAO-B enzyme; 5 mg q.d. for 6–9 days, whole brain, N = 2",0.04 (0.04–0.05)
